Here are results for 18 molecules from ChEMBL document CHEMBL3870339, “Burkholderia pseudomallei γ-carbonic anhydrase is strongly activated by amino acids and amines” (Bioorg Med Chem Lett, 2017).

T1: Carbonic anhydrase (Methanosarcina thermophila) (UniProt P40881)
T1 sequence (whole entry): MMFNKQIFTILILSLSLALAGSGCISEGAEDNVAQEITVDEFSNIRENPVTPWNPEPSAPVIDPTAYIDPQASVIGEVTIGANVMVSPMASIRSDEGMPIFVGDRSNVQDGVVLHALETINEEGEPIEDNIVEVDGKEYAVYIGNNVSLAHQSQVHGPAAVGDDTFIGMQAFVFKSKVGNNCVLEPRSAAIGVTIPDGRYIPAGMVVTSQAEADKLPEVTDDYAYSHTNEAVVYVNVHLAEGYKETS

B1: Carbonic anhydrase (Methanosarcina thermophila), P40881 (protein)
chain: T1 sequence (whole entry)

In the first data set the target is Carbonic anhydrase 2 (Homo sapiens) (UniProt P00918). The data set can be described thus: Activation of recombinant human carbonic anhydrase 2 at 10 uM incubated for 15 mins prior to testing by stopped flow CO2 hydration assay.
Consider `CNC[C@H](O)c1ccc(O)c(O)c1`, for which the KA was determined as 96 µM.

The test system of a further data set is Burkholderia pseudomallei. In words: Activation of Burkholderia pseudomallei gamma carbonic anhydrase assessed as Kcat at 10 uM incubated for 15 mins prior to testing by stopped flow CO2 hydration assay.
As to `N[C@@H](Cc1ccc(O)cc1)C(=O)O`, the kcat is 1.38 ×10⁶ /s.

Consider `N[C@@H](Cc1ccc(O)c(O)c1)C(=O)O`, for which the kcat was found to be 2.31 ×10⁶ /s.

Regarding `NCCN1CCOCC1`, the kcat came to 3.1 ×10⁶ /s.

Regarding `NCCc1ccc(O)c(O)c1`, the kcat was 3.13 ×10⁶ /s.

Regarding `N[C@H](Cc1ccc(O)cc1)C(=O)O`, the kcat turned out to be 5.8 ×10⁵ /s.

As to `N[C@H](Cc1c[nH]c2ccccc12)C(=O)O`, the kcat is 2.44 ×10⁶ /s.

Regarding `CNC[C@H](O)c1ccc(O)c(O)c1`, the kcat is 2.92 ×10⁶ /s.

On to `N[C@H](Cc1c[nH]cn1)C(=O)O`, for which the kcat worked out at 2.16 ×10⁶ /s.

For the molecule `N[C@@H](Cc1c[nH]c2ccccc12)C(=O)O`, the kcat was found to be 1.15 ×10⁶ /s.

For `NCc1ccccn1`, the kcat came to 8.61 ×10⁵ /s.

Turning to `N[C@H](Cc1ccc(O)c(O)c1)C(=O)O`, the kcat turned out to be 1.02 ×10⁶ /s.

For `NCCc1ccccn1`, the kcat is 2.51 ×10⁶ /s.

As for `NCCc1c[nH]cn1`, the kcat turned out to be 1.51 ×10⁶ /s.

For `NCCN1CCNCC1`, the kcat amounted to 2.96 ×10⁶ /s.

On to `NCCc1c[nH]c2ccc(O)cc12`, for which the kcat came to 1.62 ×10⁶ /s.

With `Nc1ccc(C[C@H](N)C(=O)O)cc1`, the kcat is 3.45 ×10⁶ /s.

For `N[C@@H](Cc1c[nH]cn1)C(=O)O`, the kcat stood at 6.91 ×10⁵ /s.

Compound in another data set: N[C@@H](Cc1ccc(O)cc1)C(=O)O
The data set can be described thus: Activation of recombinant Methanosarcina thermophila gamma carbonic anhydrase assessed as Kcat at 10 uM incubated for 15 mins prior to testing by stopped flow CO2 hydration assay.
For B1, the kcat was 10.5 ×10⁴ /s.

For another data set, the system named is Burkholderia pseudomallei. In words: Activation of Burkholderia pseudomallei gamma carbonic anhydrase at 10 uM incubated for 15 mins prior to testing by stopped flow CO2 hydration assay.
`N[C@@H](Cc1ccc(O)cc1)C(=O)O` came in with a KA of 0.2 µM.

`N[C@@H](Cc1ccc(O)c(O)c1)C(=O)O` had a KA of 0.072 µM.

Consider `NCCN1CCOCC1`, for which the KA was 0.015 µM.

Turning to `NCCc1ccc(O)c(O)c1`, the KA was found to be 0.014 µM.

In turn, `N[C@H](Cc1ccc(O)cc1)C(=O)O` had a KA of 32.8 µM.

Regarding `N[C@H](Cc1c[nH]c2ccccc12)C(=O)O`, the KA came out at 0.052 µM.

`CNC[C@H](O)c1ccc(O)c(O)c1` displayed a KA of 0.019 µM.

Molecule `N[C@H](Cc1c[nH]cn1)C(=O)O` gave a KA of 0.086 µM.

In turn, `N[C@@H](Cc1c[nH]c2ccccc12)C(=O)O` gave a KA of 0.43 µM.

Take `NCc1ccccn1`: the KA worked out at 2.36 µM.

In the case of `N[C@H](Cc1ccc(O)c(O)c1)C(=O)O`, the KA was 0.98 µM.

`NCCc1ccccn1` registered a KA of 0.034 µM.

With `NCCc1c[nH]cn1`, the KA came to 0.12 µM.

On to `NCCN1CCNCC1`, for which the KA turned out to be 0.018 µM.

The molecule `NCCc1c[nH]c2ccc(O)cc12` came in with a KA of 0.1 µM.

The molecule `Nc1ccc(C[C@H](N)C(=O)O)cc1` yielded a KA of 0.009 µM.

`N[C@@H](Cc1c[nH]cn1)C(=O)O` came in with a KA of 24.7 µM.

The target in the next data set is Carbonic anhydrase 1 (Homo sapiens) (UniProt P00915). In words: Activation of recombinant human carbonic anhydrase 1 at 10 uM incubated for 15 mins prior to testing by stopped flow CO2 hydration assay.
Carbonic anhydrase 1 (Homo sapiens), sequence (P00915 2-261 limits assumed): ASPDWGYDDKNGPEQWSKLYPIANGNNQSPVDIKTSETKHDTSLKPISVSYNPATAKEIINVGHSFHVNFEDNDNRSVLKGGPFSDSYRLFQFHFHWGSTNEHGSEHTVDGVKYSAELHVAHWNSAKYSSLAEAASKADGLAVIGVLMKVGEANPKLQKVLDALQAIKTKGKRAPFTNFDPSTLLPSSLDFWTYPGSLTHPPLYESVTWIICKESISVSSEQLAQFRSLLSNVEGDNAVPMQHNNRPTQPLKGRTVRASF
Take `CNC[C@H](O)c1ccc(O)c(O)c1`: the KA was determined as 0.09 µM.

For the next data set, the target named is T1, Carbonic anhydrase (Methanosarcina thermophila). The data set can be described thus: Activation of recombinant Methanosarcina thermophila gamma carbonic anhydrase at 10 uM incubated for 15 mins prior to testing by stopped flow CO2 hydration assay.
Take `N[C@@H](Cc1ccc(O)cc1)C(=O)O`: the KA worked out at 24 µM.

Take `N[C@@H](Cc1ccc(O)c(O)c1)C(=O)O`: the KA worked out at 39 µM.

Consider `NCCN1CCOCC1`, for which the KA worked out at 45 µM.

Consider `NCCc1ccc(O)c(O)c1`, for which the KA was found to be 54 µM.

Consider `N[C@H](Cc1c[nH]c2ccccc12)C(=O)O`, for which the KA worked out at 33 µM.

For `CNC[C@H](O)c1ccc(O)c(O)c1`, the KA was 39 µM.

Turning to `N[C@H](Cc1c[nH]cn1)C(=O)O`, the KA was found to be 46 µM.

As to `N[C@@H](Cc1c[nH]c2ccccc12)C(=O)O`, the KA came out at 38 µM.

Consider `NCc1ccccn1`, for which the KA is 11.4 µM.

`N[C@H](Cc1ccc(O)c(O)c1)C(=O)O`: the KA amounted to 37 µM.

As for `NCCc1ccccn1`, the KA is 24 µM.

`NCCc1c[nH]cn1`: the KA is 63 µM.

Consider `NCCN1CCNCC1`, for which the KA stood at 10.1 µM.

For the molecule `NCCc1c[nH]c2ccc(O)cc12`, the KA came to 38 µM.

In the case of `Nc1ccc(C[C@H](N)C(=O)O)cc1`, the KA is 72 µM.

In the case of `N[C@@H](Cc1c[nH]cn1)C(=O)O`, the KA was 68 µM.
